Source: US20130261142A1, “COMPOUNDS USED FOR TREATING CANCER AND THE USE THEREOF” (priority 2010, published 2013)
“Also recorded” adds a separate entry of the source.

Tests used:
MCF-7 SPS cells [1] = assay: Toxicity of Paclitaxol on MCF-7 sps cells; format: cell-based
From the text: (§1) Next, we compared the toxicity effects of the anti-cancer drug, Paclitaxol, on MCF-7 cells, MCF-7 SPS cells, MDA-MB 231 cells and MDA-MB 231 SPS.

MCF-7 cells = assay: Toxicity of Paclitaxol on MCF-7 cells; format: cell-based
From the text: as §1

MCF-7 SPS cells [2] = assay: LOPAC compounds tested on MCF-7 SPS cells (Table 2); conditions: Compounds that inhibit cancer stem cells, 3 μM stated for Niclosamide
From the text: (§3) The morphology and number of the spheroids were further analyzed by software image pro plus.

CP70 sps cells [3] = assay: Cytotoxicity / vitality of CP70 sps cells (MTS assay); conditions: FIG. 14 / FIG. 15
Protocol: (§2) The vitality of the treated cells was measured by MTS assay using MTS-based CellTiter 96 aqueous non-radioactive cell proliferation assay kit (Promega) according to the manufacturer's instructions.
The vitality of the CP70 sps cells was measured by MTS assay. For preclinical test, two groups with five mice each were i.p. injected with 1×10^4 of CP70 sps cells alone or followed by Niclosamide treatment (10 mg/kg/daily) from day 1 to day 47, respectively. The body weights of the two groups of mice were monitored every 3 days during day 36 to day 48. After 48 days, the mice were sacrificed to examine the tumor nodules formation in the abdominal cavity.

Cyclin D1 = assay: Protein expression in Niclosamide-treated MCF-7 sps cells: Cyclin D1; format: cell-based; conditions: MCF-7 sps cells treated with Niclosamide
Hes-1 = assay: Protein expression in Niclosamide-treated MCF-7 sps cells: Hes-1; format: cell-based; conditions: MCF-7 sps cells treated with Niclosamide
[4] = test system: OVCICs sps cells collected from ovarian cancer patient(s); assay: Patients' OVCA specimen-derived cells (pdOVCICs / OVCICs sps), MTS assay; format: cell-based, human; conditions: in vitro
Protocol: A total of 5000 pdOVCICs were seeded onto each well in 96-well plates and each plate was treated with different concentrations of Niclosamide in duplicates for 3 days. The vitality of pdOVCICs cells was measured by MTS assay.

CP70 sps cells [5] = assay: CP70 sps tumors in NOD/SCID mice (preclinical test); format: in vivo
Protocol: For preclinical test, two groups with five mice each were i.p. injected with 1×10^4 of CP70 sps cells alone or followed by Niclosamide treatment (10 mg/kg/daily) from day 1 to day 47, respectively. […] After 48 days, the mice were sacrificed to examine the tumor nodules formation in the abdominal cavity.

MDA-MB231 SPS cells = assay: Survival of MDA-MB231 SPS cells; format: cell-based, human; conditions: following Niclosamide treatment
OCT4 = assay: Flow cytometry of OCT4 in MCF-7 sps cells; format: cell-based; conditions: 5 μM
MCF-7 sps cells [6] = assay: MCF-7 sps tumors in NOD/SCID mice; format: in vivo; conditions: MCF-7 sps cells in NOD/SCID mice, 5 μM Niclosamide
MDA-MB 231 cells = assay: Inhibition of MDA-MB 231 cells; format: cell-based, human; conditions: 3 μM
MCF-7 SPS cells [7] = assay: MCF-7 SPS spheroid proliferation and differentiation
From the text: as §3

PTCH = assay: Protein expression in Niclosamide-treated MCF-7 sps cells: PTCH; format: cell-based; conditions: MCF-7 sps cells treated with Niclosamide
OVCA sps cells = assay: LOPAC compounds tested on OVCA sps cells, MTS / ATP-based assay (Table 3); format: cell-based; conditions: proliferation and differentiation
Protocol: CP70 sps cells were seeded in a 96-well culture plate (1×10^3 cells/well) and cultured for 24 hr, and then treated with 30 μM of various compounds selected from the LOPAC database. Following 3-day treatment, the vitality of the treated cells was measured by CellTiter-Glo® Luminescent Cell Vitality Assay kit (Promega) according to the manufacturer's instructions.
as §2

shh = assay: Signaling inhibitors on MCF-7 SPS cells: shh; format: cell-based; conditions: 30 μM, 3 days
From the text: Moreover, MCF-7 SPS cells were affected by the expression of Wnt, NOTCH and shh which caused morphological changes. […] Based on the aforementioned experiments, MCF-7 SPS cells contain cancer stem cells that can undergo further differentiation (FIG. 5B).

## CC(=O)O[C@H]1C(=O)[C@@]2(C)[C@H]([C@H](OC(=O)c3ccccc3)[C@]3(O)C[C@H](OC(=O)[C@H](O)[C@@H](NC(=O)c4ccccc4)c4ccccc4)C(C)=C1C3(C)C)[C@]1(OC(C)=O)CO[C@@H]1C[C@@H]2O [Paclitaxol]
MCF-7 SPS cells [1]
  toxicity effect on MCF-7 sps cells: no effect
MCF-7 cells
  toxicity effect on MCF-7 cells: notably inhibited

## O=C(Nc1ccc([N+](=O)[O-])cc1Cl)c1cc(Cl)ccc1O [Niclosamide]
MCF-7 SPS cells [2]
  Cancer cell survival (%): 1.4%
CP70 sps cells [3]
  numbers of ovarian cancer stem cells in CP70 SPS cell culture in vitro: inhibited
Cyclin D1
  inhibition of Cyclin D1 expression: 57.4%
Hes-1
  inhibition of Hes-1 expression: 33.1%
[4]
  differentiation and growth of ovarian cancer cells: successfully inhibited
CP70 sps cells [5]; CP70 sps cells in NOD/SCID mice, 5 μM Niclosamide
  sizes and weights of the tumors vs untreated mice: significantly different; also recorded: smaller and lighter
CP70 sps cells [5]; mouse, in vivo
  inhibition on cancer stem cells in pre-clinical ovarian cancer studies: successful inhibition
CP70 sps cells [5]; tumors from Niclosamide-treated animals (FIG. 13B)
  numbers of ovarian cancer cells in the tumors: inhibited
MDA-MB231 SPS cells
  survival of MDA-MB231 SPS cells: negatively correlated with the treatment
OCT4
  expression of OCT4: higher expression
MCF-7 sps cells [6]
  sizes and weights of the tumors vs untreated mice: smaller and lighter
MDA-MB 231 cells
  inhibition of MDA-MB 231 cells: significantly inhibited
MCF-7 SPS cells [7]; 3 μM
  inhibition of MCF-7 sps cells: significantly inhibited
MCF-7 SPS cells [7]; MCF-7 SPS, 3 μM and 30 μM for 48 hr
  proliferation and differentiation of the spheroid: efficiently inhibit
MCF-7 SPS cells [7]; concentration not given
  differentiation and proliferation / formation of MCF-7 SPS cells: inhibit the formation; also recorded: significantly inhibited
PTCH
  inhibition of PTCH expression: 79.2%
OVCA sps cells
  Cancer cell survival (%): 34.86%

## CC1=C2C[C@H]3[C@@H](CC=C4C[C@@H](O)CC[C@@]43C)[C@@H]2CC[C@]12O[C@@H]1C[C@H](C)CN[C@H]1[C@H]2C [cyclopamide]
shh
  expression of shh: inhibited
